Reference: patent US6693216B2, “Calcium double salts” (Nutrinova Nutrition Specialties & Food Ingredients GmbH, priority 2000, dated 2004)
Like-named read-outs stand apart in the source and are kept apart here.

Tests used:
Settings in all cases: Part II, 1 g/l in apple juice pH 4.5, 25° C.
Lactic acid bacteria = tested on: Lactic acid bacteria
Bacilli = tested on: Bacilli
Thermophilic bacilli = tested on: Thermophilic bacilli
Acetic acid bacteria = tested on: Acetic acid bacteria
Yeasts = tested on: Yeasts
Molds I = tested on: Molds I
Molds II = tested on: Molds II
Gram-negative bacteria = tested on: Gram-negative bacteria
Gram-positive bacteria = tested on: Gram-positive bacteria
Clostridia = tested on: Clostridia
[1] = 1 day after inoculation (2.7 × 10^4)
[2] = 3 days after inoculation (2.7 × 10^4)
[3] = 7 days after inoculation (2.7 × 10^4)
[4] = 14 days after inoculation (2.7 × 10^4)
[5] = 1 day after inoculation (3.3 × 10^4)
[6] = 3 days after inoculation (3.3 × 10^4)
[7] = 7 days after inoculation (3.3 × 10^4)
[8] = 14 days after inoculation (3.3 × 10^4)
[9] = 1 day after inoculation (1.3 × 10^4)
[10] = 3 days after inoculation (1.3 × 10^4)
[11] = 7 days after inoculation (1.3 × 10^4)
[12] = 14 days after inoculation (1.3 × 10^4)
[13] = 1 day after inoculation (2.8 × 10^4)
[14] = 3 days after inoculation (2.8 × 10^4)
[15] = 7 days after inoculation (2.8 × 10^4)
[16] = 14 days after inoculation (2.8 × 10^4)
[17] = 1 day after inoculation (2.6 × 10^4)
[18] = 3 days after inoculation (2.6 × 10^4)
[19] = 7 days after inoculation (2.6 × 10^4)
[20] = 14 days after inoculation (2.6 × 10^4)
[21] = 1 day after inoculation (2.2 × 10^4)
[22] = 3 days after inoculation (2.2 × 10^4)
[23] = 7 days after inoculation (2.2 × 10^4)
[24] = 14 days after inoculation (2.2 × 10^4)
[25] = 1 day after inoculation (2.5 × 10^4)
[26] = 3 days after inoculation (2.5 × 10^4)
[27] = 7 days after inoculation (2.5 × 10^4)
[28] = 14 days after inoculation (2.5 × 10^4)
[29] = 1 day after inoculation (2.1 × 10^4)
[30] = 3 days after inoculation (2.1 × 10^4)
[31] = 7 days after inoculation (2.1 × 10^4)
[32] = 14 days after inoculation (2.1 × 10^4)

SMILES | Number of surviving microorganisms per g of contaminated sample, Lactic acid bacteria (Lactic acid bacteria; [1]) | Number of surviving microorganisms per g of contaminated sample, Lactic acid bacteria (Lactic acid bacteria; [2]) | Number of surviving microorganisms per g of contaminated sample, Lactic acid bacteria (Lactic acid bacteria; [3]) | Number of surviving microorganisms per g of contaminated sample, Lactic acid bacteria (Lactic acid bacteria; [4]) | Number of surviving microorganisms per g of contaminated sample, Bacilli (Bacilli; [5]) | Number of surviving microorganisms per g of contaminated sample, Bacilli (Bacilli; [6]) | Number of surviving microorganisms per g of contaminated sample, Bacilli (Bacilli; [7]) | Number of surviving microorganisms per g of contaminated sample, Bacilli (Bacilli; [8]) | Number of surviving microorganisms per g of contaminated sample, Thermophilic bacilli (Thermophilic bacilli; [9]) | Number of surviving microorganisms per g of contaminated sample, Thermophilic bacilli (Thermophilic bacilli; [10]) | Number of surviving microorganisms per g of contaminated sample, Thermophilic bacilli (Thermophilic bacilli; [11]) | Number of surviving microorganisms per g of contaminated sample, Thermophilic bacilli (Thermophilic bacilli; [12]) | Number of surviving microorganisms per g of contaminated sample, Acetic acid bacteria (Acetic acid bacteria; [13]) | Number of surviving microorganisms per g of contaminated sample, Acetic acid bacteria (Acetic acid bacteria; [14]) | Number of surviving microorganisms per g of contaminated sample, Acetic acid bacteria (Acetic acid bacteria; [15]) | Number of surviving microorganisms per g of contaminated sample, Acetic acid bacteria (Acetic acid bacteria; [16]) | Number of surviving microorganisms per g of contaminated sample, Yeasts (Yeasts; [17]) | Number of surviving microorganisms per g of contaminated sample, Yeasts (Yeasts; [18]) | Number of surviving microorganisms per g of contaminated sample, Yeasts (Yeasts; [19]) | Number of surviving microorganisms per g of contaminated sample, Yeasts (Yeasts; [20]) | also measured
CC(=O)[O-].CC(=O)[O-].[Ca+2] [Calcium Acetate] | 5.6 × 10^5 CFU/g | >3.0 × 10^6 CFU/g | >3.0 × 10^6 CFU/g | 2.4 × 10^4 CFU/g | 1.6 × 10^3 CFU/g | 1.0 × 10^3 CFU/g | 1.8 × 10^3 CFU/g | 1.8 × 10^3 CFU/g | 2.1 × 10^3 CFU/g | 6.0 × 10^2 CFU/g | <10 CFU/g | <10 CFU/g | 8.4 × 10^5 CFU/g | >3.0 × 10^6 CFU/g | >3.0 × 10^6 CFU/g | 1.5 × 10^6 CFU/g | 1.3 × 10^6 CFU/g | 2.5 × 10^6 CFU/g | >3.0 × 10^6 CFU/g | >3.0 × 10^6 CFU/g | Number of surviving microorganisms per g of contaminated sample, Molds I (Molds I; [21]): 1.1 × 10^4 CFU/g; Number of surviving microorganisms per g of contaminated sample, Molds I (Molds I; [22]): 2.2 × 10^3 CFU/g; Number of surviving microorganisms per g of contaminated sample, Molds I (Molds I; [23]): 7.6 × 10^3 CFU/g; Number of surviving microorganisms per g of contaminated sample, Molds I (Molds I; [24]): 4.5 × 10^4 CFU/g; Number of surviving microorganisms per g of contaminated sample, Molds II (Molds II; [25]): 1.5 × 10^4 CFU/g; Number of surviving microorganisms per g of contaminated sample, Molds II (Molds II; [26]): 1.2 × 10^4 CFU/g; Number of surviving microorganisms per g of contaminated sample, Molds II (Molds II; [27]): >1.0 × 10^5 CFU/g; Number of surviving microorganisms per g of contaminated sample, Molds II (Molds II; [28]): 3.5 × 10^4 CFU/g; Number of surviving microorganisms per g of contaminated sample, Gram-negative bacteria (Gram-negative bacteria; [1]): 1.7 × 10^4 CFU/g; Number of surviving microorganisms per g of contaminated sample, Gram-negative bacteria (Gram-negative bacteria; [2]): 1.3 × 10^4 CFU/g; Number of surviving microorganisms per g of contaminated sample, Gram-negative bacteria (Gram-negative bacteria; [3]): 2.2 × 10^3 CFU/g; Number of surviving microorganisms per g of contaminated sample, Gram-negative bacteria (Gram-negative bacteria; [4]): <100 CFU/g; Number of surviving microorganisms per g of contaminated sample, Gram-positive bacteria (Gram-positive bacteria; [29]): 1.1 × 10^5 CFU/g; Number of surviving microorganisms per g of contaminated sample, Gram-positive bacteria (Gram-positive bacteria; [30]): 9.0 × 10^4 CFU/g; Number of surviving microorganisms per g of contaminated sample, Gram-positive bacteria (Gram-positive bacteria; [31]): 6.7 × 10^3 CFU/g; Number of surviving microorganisms per g of contaminated sample, Gram-positive bacteria (Gram-positive bacteria; [32]): 5.9 × 10^3 CFU/g
O=C[O-].O=C[O-].[Ca+2] [Calcium Formate] | 4.4 × 10^3 CFU/g | 2.5 × 10^4 CFU/g | >3.0 × 10^6 CFU/g | >3.0 × 10^6 CFU/g | 1.7 × 10^3 CFU/g | 1.5 × 10^3 CFU/g | 1.4 × 10^3 CFU/g | 1.7 × 10^3 CFU/g | 2.3 × 10^3 CFU/g | 8.0 × 10^2 CFU/g | 6.0 × 10^2 CFU/g | <10 CFU/g | 8.7 × 10^5 CFU/g | 2.5 × 10^6 CFU/g | >3.0 × 10^6 CFU/g | >3.0 × 10^6 CFU/g | 7.4 × 10^5 CFU/g | 1.0 × 10^6 CFU/g | >3.0 × 10^6 CFU/g | >3.0 × 10^6 CFU/g | Number of surviving microorganisms per g of contaminated sample, Clostridia (Clostridia; 1 day after inoculation (2.9 × 10^4)): 4.0 × 10^2 CFU/g; Number of surviving microorganisms per g of contaminated sample, Clostridia (Clostridia; 3 days after inoculation (2.9 × 10^4)): 2.0 × 10^2 CFU/g; Number of surviving microorganisms per g of contaminated sample, Clostridia (Clostridia; 7 days after inoculation (2.9 × 10^4)): <100 CFU/g; Number of surviving microorganisms per g of contaminated sample, Clostridia (Clostridia; 14 days after inoculation (2.9 × 10^4)): 10 CFU/g; Number of surviving microorganisms per g of contaminated sample, Molds I (Molds I; [21]): 4.1 × 10^3 CFU/g; Number of surviving microorganisms per g of contaminated sample, Molds I (Molds I; [22]): 2.9 × 10^3 CFU/g; Number of surviving microorganisms per g of contaminated sample, Molds I (Molds I; [23]): 1.9 × 10^3 CFU/g; Number of surviving microorganisms per g of contaminated sample, Molds I (Molds I; [24]): 2.6 × 10^3 CFU/g; Number of surviving microorganisms per g of contaminated sample, Molds II (Molds II; [25]): 1.0 × 10^4 CFU/g; Number of surviving microorganisms per g of contaminated sample, Molds II (Molds II; [26]): 1.5 × 10^3 CFU/g; Number of surviving microorganisms per g of contaminated sample, Molds II (Molds II; [27]): >3.0 × 10^4 CFU/g; Number of surviving microorganisms per g of contaminated sample, Molds II (Molds II; [28]): 3.9 × 10^5 CFU/g; Number of surviving microorganisms per g of contaminated sample, Gram-negative bacteria (Gram-negative bacteria; [1]): 1.5 × 10^4 CFU/g; Number of surviving microorganisms per g of contaminated sample, Gram-negative bacteria (Gram-negative bacteria; [2]): 3.6 × 10^3 CFU/g; Number of surviving microorganisms per g of contaminated sample, Gram-negative bacteria (Gram-negative bacteria; [3]): 2.3 × 10^3 CFU/g; Number of surviving microorganisms per g of contaminated sample, Gram-negative bacteria (Gram-negative bacteria; [4]): 75 CFU/g; Number of surviving microorganisms per g of contaminated sample, Gram-positive bacteria (Gram-positive bacteria; [29]): 2.2 × 10^4 CFU/g; Number of surviving microorganisms per g of contaminated sample, Gram-positive bacteria (Gram-positive bacteria; [30]): 8.9 × 10^3 CFU/g; Number of surviving microorganisms per g of contaminated sample, Gram-positive bacteria (Gram-positive bacteria; [31]): 4.6 × 10^3 CFU/g; Number of surviving microorganisms per g of contaminated sample, Gram-positive bacteria (Gram-positive bacteria; [32]): 2.0 × 10^3 CFU/g
